Laboratory results taken from US20260069656A1, “Nutritive Polypeptides and Formulations Thereof, and Methods of Production and Use Thereof” (Axcella Health Inc., priority 2013, published 2026).

Experiments:
healthy subjects = details: oral supplementation vs. control; cited from earlier work
[1] = system: mTORC1 (phosphorylation of ribosomal protein S6, rps6); test: AlphaScreen SureFire Ribosomal Protein S6 assay in primary rat skeletal muscle cells; assay type: cell-based
Text: Primary Rat Skeletal Muscle Cell (RSKMC) culture medium was purchased from Cell Applications (Catalog number: R150-500, San Diego, CA). Starvation medium DMEM/F12 was bought from Sigma (Catalog number: D9785, St. Louis, MO). […] Fetal bovine serum (FBS) and other growth factors were obtained from Cell Applications (Catalog number: R151-GS, San Diego, CA). Tissue culture flasks and clear bottom 96-well tissue culture plates were purchased from Corning Incorporated (Catalog number: 430641 and 353072, respectively, Corning, NY). Trypsin/EDTA was obtained from Life Technology (Catalog number: 25200, Grand Island, NY). DPBS and HBSS were also purchased from Life Technologies (Catalog number: 14190, 14175, respectively). AlphaScreen® SureFire® Ribosomal Protein S6 Assay Kits was obtained from Perkin Elmer (Catalog number: TGRS6P2S10K).
Primary Rat Skeletal Muscle Cell (RSKMC) culture. RSKMC were isolated using protocol described herein and cryopreserved in liquid nitrogen. The cells were also maintained in RSKMC medium (Cell Applications) in T75 tissue flask in a 37° C., 5% CO2 tissue culture incubator (Model 3110, Thermo Fisher Scientific). The cells were split every three day when they reached ˜90% confluency. RSKMC cells were cultured in RSKMC medium in T75 tissue flask to 100% confluency. The culture medium was aspirated from the culture flask and rinsed once with 10 ml of DPBS, and then 1.5 ml of 0.25% trypsin/EDTA was added to the cells. After the cells were detached from the flask, 10 ml of culture medium were added. The medium was pipetted up and down with a 10 ml pipet to detach the cells from the flask. The cells were then seeded into clear bottom 96-well tissue culture plates at a density of 50,000 cells per well. Following overnight culture in a 37° C., 5% CO2 incubator, the cells were starved over a period of 4 hours with starvation DME/F12 medium without FBS and leucine in a 37° C., 5% CO2 tissue culture incubator, then starved for another hour incubation with Hank's Buffered Salt Solution (HBSS). […]

[2] = Intact half-life during simulated gastric fluid (SGF) digestion; details: SGF pH 1.5, pepsin:polypeptide 1:20 w/w, 37° C.; produced in E. coli unless otherwise noted
Zucker fatty rats = test: OGTT in Zucker fatty rats, SEQID-00105 vs alogliptin vs combination (glucose 2 g/kg); assay type: in vivo, rat
Procedure: In another experiment, an OGTT was performed in 24, fasted, male Zucker fatty rats with indwelling jugular vein catheters (JVC) to assess the acute effects of nutritive protein dosing on glycemic control as well as insulin and GLP-1 levels. The capacity of SEQID-00105 to improve glucose control was tested by comparing the blood glucose excursion of SEQID-00105 to alogliptin to SEQID-00105+alogliptin to vehicle in the context of an oral glucose tolerance test. All rodents were approximately 10-11 weeks old, weighed average of approximately 430 g and acclimated for 4-5 days prior to testing. Prior to treatment, all rats were fasted overnight for fourteen hours. […] N=6 rats per treatment group. The error bars shown are the standard errors of the mean. Each group was compared post hoc on GraphPad Prism 6, two-way ANOVA, Dunnett's multiple comparisons test first comparing within each group to the fasting glucose concentration, followed by a comparison of each time point to vehicle. […] The integrated area under curve (AUC) was calculated on Microsoft Excel using the Linear-Log Trapezoidal Method and two-way ANOVA and Dunnett's multiple comparisons tests was conducted on GraphPad Prism 6.03.

burn injury = details: 0.35 g/kg, cited from earlier work
5-HT production = details: oral intake of free Tryptophan; cited from earlier work
[3] = Thermostability, ProteoStat Thermal Shift Stability Kit, temperature of aggregation; assay type: physicochemical; details: pH 7.1; heated from 25° C. to 95° C.
Procedure: Thermostability. The thermostability of proteins in a buffer cocktail of Citric Acid and Dibasic Sodium Phosphate over a pH range of 2.8 to 7.1 (preparation described above in Table E31B) was determined using the ProteoStat® Thermal Shift Stability Kit (Enzo Life Sciences) according to the manufacturer's standard protocol. Briefly, protein solutions (˜10 mg/ml) containing 1× ProteoStat TS Detection Reagent were heated from 25° C. to 95° C. at a rate of 0.5° C. per 30 sec using a real-time PCR (rtPCR) thermocycler (BioRad) equipped with a plate reader (SynergyMx, Biotek) while monitoring the fluorescence with a Texas Red filter.

N=C(N)NCCC[C@H](N)C(=O)O [Arginine]
increase in collagen deposition at wound sites (healthy subjects): 2.4 ×

CC(C)C[C@H](N)C(=O)O [leucine]
phosphorylation of rps6 ([1]; primary RSkMC, complete amino acid medium and minimal 12 amino acid mixture): stimulates phosphorylation of rps6 in primary RSkMC in a dose-dependent manner
phosphorylation of rps6 (relative alphascreen signal) ([1]; primary RSkMC, different Leucine concentrations): stimulates phorphorylation of rps6 in primary RSkMC in a dose-dependent manner
mTOR RPS6 pathway stimulation ([1]; primary cells from Soleus, gastrocnemius and extensor digitorum longus): stimulates mTOR RPS6 pathway using isolated primary cells in a dose dependent manner

SEQID-00143: nutritive polypeptide (LYLEEVSKNLVEINPLKLEVKAKPWFVYTPMHGVGFDIFSTIVKKTLCLVEGK; listed as Saccharomyces cerevisiae)
SGF Half-life (t½) [2]: 18 s

Cn1c(=O)cc(N2CCC[C@@H](N)C2)n(Cc2ccccc2C#N)c1=O [Alogliptin]
glucose AUC vs vehicle (Zucker fatty rats; 0 to 120 minutes, P=0.0051): significantly less than vehicle
glucose AUC vs vehicle (Zucker fatty rats; 0 to 240 minutes, P=0.0054): significantly less than vehicle
blood glucose vs vehicle (Zucker fatty rats; 30 minutes following glucose challenge): significantly lower blood glucose than vehicle
blood glucose vs vehicle (Zucker fatty rats; 60 minutes following glucose challenge): significantly lower than vehicle

NC(=O)CC[C@H](N)C(=O)O [Glutamine]
decrease in Lactulose/mannitol ratio (burn injury; after 3 days, vs 5.5× decrease): 8.8 ×
reduction in hospital stay (burn injury): 6 days

N[C@@H](Cc1c[nH]c2ccccc12)C(=O)O [Tryptophan]
increase of 5-HT production (5-HT production): 2 fold

SEQID-00237: nutritive polypeptide (EEDKVNTLTKAKTKLEQQVDDLEGSLEQEKKLRMDLERAKRKLEGDLKLA; listed as Bos taurus)
Tagg (pH 7.1) [3]: 45
SGF Half-life (t½) [2]: 36 s

SEQID-00218: nutritive polypeptide (GTIENLEEAKKKLLKDVEVLSQRLEEKALAYDKLEKTKTRLQQELDDLLVDLDHQ; listed as Bos taurus)
SGF Half-life (t½) [2]: 360 s

SEQID-00215: nutritive polypeptide (KKLLKDVEVLSQRLEEKALAYDKLEKTKTRLQQELDDLLVDLDHQRQIVSNLEKK; listed as Bos taurus)
SGF Half-life (t½) [2]: 120 s

SEQID-00212: nutritive polypeptide (LEEAKKKLLKDVEVLSQRLEEKALAYDKLEKTKTRLQQELDDLLVDLDHQ; listed as Bos taurus)
SGF Half-life (t½) [2]: 18 s
